Experimental data: ChEMBL document CHEMBL5528077, “Structure-Based Discovery of High-Affinity Small Molecule Ligands and Development of Tool Probes to Study the Role of Chitinase-3-Like Protein 1” (J Med Chem, 2024)

Assays:
in vivo [1] = details: BALB/c, mouse, iv, 3 mg/kg
in vivo [2] = details: BALB/c, mouse, iv, 3 mg/kg; remark: listed apart in the source
in vivo [3] = details: BALB/c, mouse, po, 10 mg/kg

SMILES	Vd (in vivo [1])	clearance (in vivo [2])	bioavailability (in vivo [3])
CC(C)CN1C[C@H](Cc2ccc(Cl)cc2)N(C2CCN(c3ccccn3)CC2)C[C@@H]1C	9.25 L/kg	69 mL/min/kg	5.6%
Cc1ccnc(N2CCC(N3C[C@H](C)OC[C@@H]3Cc3ccc(Cl)cc3)CC2)c1	2.5 L/kg	58 mL/min/kg	
